Data reported in the NIST ThermoML archive (doi:10.1016/j.jct.2012.06.012).

Assay: xn = mol fraction of the nth substance listed
Conditions: Liquid, Vibrating tube method

CCCCCCCCCC [decane] + CCO
Conditions	mass density [kg/m3]
313.07 K, 1000 kPa, x2 = 0.9014	753.75
313.07 K, 2000 kPa, x2 = 0.9014	754.71
313.07 K, 3000 kPa, x2 = 0.9014	755.67
313.07 K, 4000 kPa, x2 = 0.9014	756.61
313.07 K, 5000 kPa, x2 = 0.9014	757.53
313.07 K, 6000 kPa, x2 = 0.9014	758.44
313.07 K, 7000 kPa, x2 = 0.9014	759.33
313.07 K, 8000 kPa, x2 = 0.9014	760.24
313.07 K, 9000 kPa, x2 = 0.9014	761.14
313.07 K, 10000 kPa, x2 = 0.9014	762.04
313.07 K, 11000 kPa, x2 = 0.9014	762.94
313.07 K, 12000 kPa, x2 = 0.9014	763.84
313.07 K, 13000 kPa, x2 = 0.9014	764.72
313.07 K, 14000 kPa, x2 = 0.9014	765.58
313.07 K, 15000 kPa, x2 = 0.9014	766.45
313.07 K, 16000 kPa, x2 = 0.9014	767.29
313.07 K, 17000 kPa, x2 = 0.9014	768.13
313.07 K, 18000 kPa, x2 = 0.9014	768.94
313.07 K, 19000 kPa, x2 = 0.9014	769.74
313.07 K, 20000 kPa, x2 = 0.9014	770.52
313.08 K, 1000 kPa, x2 = 0.1011	715.15
313.08 K, 1000 kPa, x2 = 0.4963	724.28
313.08 K, 1000 kPa, x2 = 0.7526	738.33
313.08 K, 2000 kPa, x2 = 0.1011	716.05
313.08 K, 2000 kPa, x2 = 0.4963	725.2
313.08 K, 2000 kPa, x2 = 0.7526	739.26
313.08 K, 3000 kPa, x2 = 0.1011	716.93
313.08 K, 3000 kPa, x2 = 0.4963	726.11
313.08 K, 3000 kPa, x2 = 0.7526	740.19
313.08 K, 4000 kPa, x2 = 0.1011	717.8
313.08 K, 4000 kPa, x2 = 0.4963	727
313.08 K, 4000 kPa, x2 = 0.7526	741.1
313.08 K, 5000 kPa, x2 = 0.1011	718.66
313.08 K, 5000 kPa, x2 = 0.4963	727.87
313.08 K, 5000 kPa, x2 = 0.7526	741.99
313.08 K, 6000 kPa, x2 = 0.1011	719.51
313.08 K, 6000 kPa, x2 = 0.4963	728.73
313.08 K, 6000 kPa, x2 = 0.7526	742.87
313.08 K, 7000 kPa, x2 = 0.1011	720.34
313.08 K, 7000 kPa, x2 = 0.4963	729.58
313.08 K, 7000 kPa, x2 = 0.7526	743.75
313.08 K, 8000 kPa, x2 = 0.1011	721.16
313.08 K, 8000 kPa, x2 = 0.4963	730.44
313.08 K, 8000 kPa, x2 = 0.7526	744.64
313.08 K, 9000 kPa, x2 = 0.1011	721.98
313.08 K, 9000 kPa, x2 = 0.4963	731.3
313.08 K, 9000 kPa, x2 = 0.7526	745.53
313.08 K, 10000 kPa, x2 = 0.1011	722.8
313.08 K, 10000 kPa, x2 = 0.4963	732.16
313.08 K, 10000 kPa, x2 = 0.7526	746.41
313.08 K, 11000 kPa, x2 = 0.1011	723.63
313.08 K, 11000 kPa, x2 = 0.4963	733
313.08 K, 11000 kPa, x2 = 0.7526	747.29
313.08 K, 12000 kPa, x2 = 0.1011	724.45
313.08 K, 12000 kPa, x2 = 0.4963	733.86
313.08 K, 12000 kPa, x2 = 0.7526	748.17
313.08 K, 13000 kPa, x2 = 0.1011	725.26
313.08 K, 13000 kPa, x2 = 0.4963	734.7
313.08 K, 13000 kPa, x2 = 0.7526	749.03
313.08 K, 14000 kPa, x2 = 0.1011	726.06
313.08 K, 14000 kPa, x2 = 0.4963	735.54
313.08 K, 14000 kPa, x2 = 0.7526	749.89
313.08 K, 15000 kPa, x2 = 0.1011	726.85
313.08 K, 15000 kPa, x2 = 0.4963	736.35
313.08 K, 15000 kPa, x2 = 0.7526	750.73
313.08 K, 16000 kPa, x2 = 0.1011	727.63
313.08 K, 16000 kPa, x2 = 0.4963	737.16
313.08 K, 16000 kPa, x2 = 0.7526	751.56
313.08 K, 17000 kPa, x2 = 0.1011	728.39
313.08 K, 17000 kPa, x2 = 0.4963	737.95
313.08 K, 17000 kPa, x2 = 0.7526	752.38
313.08 K, 18000 kPa, x2 = 0.1011	729.13
313.08 K, 18000 kPa, x2 = 0.4963	738.72
313.08 K, 18000 kPa, x2 = 0.7526	753.17
313.08 K, 19000 kPa, x2 = 0.1011	729.85
313.08 K, 19000 kPa, x2 = 0.4963	739.47
313.08 K, 19000 kPa, x2 = 0.7526	753.95
313.08 K, 20000 kPa, x2 = 0.1011	730.55
313.08 K, 20000 kPa, x2 = 0.4963	740.21
313.08 K, 20000 kPa, x2 = 0.7526	754.7
313.09 K, 1000 kPa, x2 = 0.0937	715.17
313.09 K, 2000 kPa, x2 = 0.0937	716.07
313.09 K, 3000 kPa, x2 = 0.0937	716.95
313.09 K, 4000 kPa, x2 = 0.0937	717.82
313.09 K, 5000 kPa, x2 = 0.0937	718.68
313.09 K, 6000 kPa, x2 = 0.0937	719.53
313.09 K, 7000 kPa, x2 = 0.0937	720.36
313.09 K, 8000 kPa, x2 = 0.0937	721.18
313.09 K, 9000 kPa, x2 = 0.0937	721.99
313.09 K, 10000 kPa, x2 = 0.0937	722.79
